# Test results as given in patent publication US10919911B2, “Tricyclic ASK1 inhibitors” (Terns, Inc., priority 2018, dated 2021).
# Target: ASK1 kinase (Homo sapiens (Human), UniProt Q99683)
# Assay: RBC Kinase Assay (33P-ATP radiometric, myelin basic protein substrate)
# Type: biochemical
# Details: 20 ng ASK1 kinase, MBP substrate, 120 min at room temperature, 1% DMSO
# Experimental: Example B1. RBC Kinase Assay Protocol
# Base Reaction buffer: 20 mM Hepes (pH 7.5), 10 mM MgCl2, 1 mM EGTA, 0.02% Brij35, 0.02 mg/ml BSA, 0.1 mM Na3VO4, 2 mM DTT, and 1% DMSO were used for the assay.
# Myelin base protein (MPB) was prepared in freshly prepared Base Reaction Buffer. 20 ng of ASK1 kinase was delivered into the substrate solution and gently mixed. Compounds in DMSO were delivered into the kinase reaction mixture (final DMSO concentration 1%). Commercially available 33P-ATP was delivered into the reaction mixture to initiate the reaction. The kinase reaction was incubated for 120 min. at room temperature. Reactions were spotted onto P81 ion exchange paper (Whatman #3698-915). Filters were washed extensively in 0.75% Phosphoric acid. Radioactivity on filters was read, and IC50 values were determined.
# Sequence of ASK1 kinase (Q99683 whole entry): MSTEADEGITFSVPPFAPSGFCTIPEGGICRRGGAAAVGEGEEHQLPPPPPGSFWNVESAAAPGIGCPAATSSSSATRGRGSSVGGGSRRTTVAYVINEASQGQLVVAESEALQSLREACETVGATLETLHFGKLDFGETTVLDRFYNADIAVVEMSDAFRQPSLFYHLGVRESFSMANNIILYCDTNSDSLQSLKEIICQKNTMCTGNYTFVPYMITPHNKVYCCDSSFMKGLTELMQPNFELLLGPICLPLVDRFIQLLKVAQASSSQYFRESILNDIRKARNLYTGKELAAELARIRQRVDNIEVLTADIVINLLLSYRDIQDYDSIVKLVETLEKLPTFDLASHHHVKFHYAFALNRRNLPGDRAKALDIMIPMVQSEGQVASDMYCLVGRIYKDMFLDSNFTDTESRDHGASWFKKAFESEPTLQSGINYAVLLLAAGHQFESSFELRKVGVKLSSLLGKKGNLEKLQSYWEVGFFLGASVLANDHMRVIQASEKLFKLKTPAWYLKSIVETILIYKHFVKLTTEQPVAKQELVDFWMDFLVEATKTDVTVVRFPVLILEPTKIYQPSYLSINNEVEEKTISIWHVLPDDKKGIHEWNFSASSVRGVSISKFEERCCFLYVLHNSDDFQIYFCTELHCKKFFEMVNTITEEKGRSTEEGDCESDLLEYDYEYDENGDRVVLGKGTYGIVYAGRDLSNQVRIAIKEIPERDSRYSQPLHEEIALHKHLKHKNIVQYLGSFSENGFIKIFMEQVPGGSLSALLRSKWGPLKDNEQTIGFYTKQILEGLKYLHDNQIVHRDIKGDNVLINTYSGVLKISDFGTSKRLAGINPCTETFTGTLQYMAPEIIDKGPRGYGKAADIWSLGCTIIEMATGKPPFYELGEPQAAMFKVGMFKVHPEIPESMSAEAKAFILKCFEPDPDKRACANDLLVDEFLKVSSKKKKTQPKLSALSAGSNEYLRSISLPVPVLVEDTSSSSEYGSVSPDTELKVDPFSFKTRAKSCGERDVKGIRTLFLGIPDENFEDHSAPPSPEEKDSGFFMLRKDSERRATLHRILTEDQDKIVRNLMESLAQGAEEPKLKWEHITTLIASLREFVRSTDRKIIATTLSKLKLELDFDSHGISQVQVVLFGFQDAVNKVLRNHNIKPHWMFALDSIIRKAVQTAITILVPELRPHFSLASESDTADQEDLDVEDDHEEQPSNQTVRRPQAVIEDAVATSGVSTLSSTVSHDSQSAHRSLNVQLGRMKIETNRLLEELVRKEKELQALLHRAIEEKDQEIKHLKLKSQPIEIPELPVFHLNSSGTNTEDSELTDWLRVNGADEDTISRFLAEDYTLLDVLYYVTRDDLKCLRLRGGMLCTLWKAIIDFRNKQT
row,IC50 [nM],Compound
1,4,"C[C@@H]1CN(c2cnc(C(=O)Nc3cccc4c3OC[C@@H](C)n3nnnc3-4)cc2-n2cnc(C3CC3)c2)CCO1 [Example 75, 4-(4-cyclopropyl-1H-imidazol-1-yl)-N—((R)-5-methyl-5,6-dihydrobenzo[f]tetrazolo[1,5-d][1,4]oxazepin-8-yl)-5-((R)-2-methylmorpholino)picolinamide]"
2,5.8,"CC(C)Oc1cnc(C(=O)Nc2cccc3c2OCCn2cnnc2-3)cc1-n1cnc(C2CC2)c1 [Example 73, 4-(4-cyclopropyl-1H-imidazol-1-yl)-N-(5,6-dihydrobenzo[f][1,2,4]triazolo[4,3-d][1,4]oxazepin-8-yl)-5-isopropoxypicolinamide]"
3,3.3,"C[C@H]1COCCN1c1cnc(C(=O)Nc2cccc3c2OCCn2nnnc2-3)cc1-n1cnc(C2CC2)c1 [Example 65, (S)-4-(4-cyclopropyl-1H-imidazol-1-yl)-N-(5,6-dihydrobenzo[f]tetrazolo[1,5-d][1,4]oxazepin-8-yl)-5-(3-methylmorpholino)picolinamide]"
4,11.6,"Cc1cc(F)c(C(=O)Nc2cccc3c2OC2(CCC2)Cn2nnnc2-3)cc1-n1cnc(C2CC2)c1 [Example 72, 5-(4-cyclopropyl-1H-imidazol-1-yl)-2-fluoro-4-methyl-N-(5H-spiro[benzo[f]tetrazolo[1,5-d][1,4]oxazepine-6,1′-cyclobutan]-8-yl)benzamide]"
5,2.6,"CC1(O)CN(c2cnc(C(=O)Nc3cccc4c3OCCn3nnnc3-4)cc2-n2cnc(C3CC3)c2)C1 [Example 67, 4-(4-cyclopropyl-1H-imidazol-1-yl)-N-(5,6-dihydrobenzo[f]tetrazolo[1,5-d][1,4]oxazepin-8-yl)-5-(3-hydroxy-3-methylazetidin-1-yl)picolinamide]"
6,4.7,"C[C@H]1COc2c(NC(=O)c3cc(-n4cnc(C5CC5)c4)c(N4CC[C@@H](O)C4)cn3)cccc2-c2nnnn21 [Example 78, 4-(4-cyclopropyl-1H-imidazol-1-yl)-5-((R)-3-hydroxypyrrolidin-1-yl)-N—((S)-5-methyl-5,6-dihydrobenzo[f]tetrazolo[1,5-d][1,4]oxazepin-8-yl)picolinamide]"
7,5.7,"Cc1cc(F)c(C(=O)Nc2cccc3c2OCC(CO)n2cnnc2-3)cc1-n1cnc(C2CC2)c1 (stereo not shown) [Example 81, 5-(4-cyclopropyl-1H-imidazol-1-yl)-2-fluoro-N-(5-(hydroxymethyl)-5,6-dihydrobenzo[f][1,2,4]triazolo[4,3-d][1,4]oxazepin-8-yl)-4-methylbenzamide]"
8,5.7,"C[C@H]1COc2c(NC(=O)c3cc(-n4cnc(C5CC5)c4)ccn3)cccc2-c2nncn21 [Example 80, (S)-4-(4-cyclopropyl-1H-imidazol-1-yl)-N-(5-methyl-5,6-dihydrobenzo[f][1,2,4]triazolo[4,3-d][1,4]oxazepin-8-yl)picolinamide]"
9,4.1,"CC(C)Oc1cnc(C(=O)Nc2cccc3c2OC[C@@H](C)n2nnnc2-3)cc1-n1cnc(C2CC2)c1 [Example 69, (R)-4-(4-cyclopropyl-1H-imidazol-1-yl)-5-isopropoxy-N-(5-methyl-5,6-dihydrobenzo[f]tetrazolo[1,5-d][1,4]oxazepin-8-yl)picolinamide]"
10,6.9,"CN(C)c1cnc(C(=O)Nc2cccc3c2OCCn2nnnc2-3)cc1-n1cnc(C2CC2)c1 [Example 60, 4-(4-cyclopropyl-1H-imidazol-1-yl)-N-(5,6-dihydrobenzo[f]tetrazolo[1,5-d][1,4]oxazepin-8-yl)-5-(dimethylamino)picolinamide]"
11,4.7,"C[C@@H]1COc2c(NC(=O)c3cc(-n4cnc(C5CC5)c4)c(N4CC[C@@H](O)C4)cn3)cccc2-c2nnnn21 [Example 77, 4-(4-cyclopropyl-1H-imidazol-1-yl)-5-((R)-3-hydroxypyrrolidin-1-yl)-N—((R)-5-methyl-5,6-dihydrobenzo[f]tetrazolo[1,5-d][1,4]oxazepin-8-yl)picolinamide]"
12,3.9,"O=C(Nc1cccc2c1OCCn1nnnc1-2)c1cc(-n2cnc(C3CC3)c2)c(N2C[C@@H]3C[C@H]2CO3)cn1 [Example 64, 5-((1S,4S)-2-oxa-5-azabicyclo[2.2.1]heptan-5-yl)-4-(4-cyclopropyl-1H-imidazol-1-yl)-N-(5,6-dihydrobenzo[f]tetrazolo[1,5-d][1,4]oxazepin-8-yl)picolinamide]"

# Second part, the compound before the results:
row,Compound,IC50 [nM]
1,"O=C(Nc1cccc2c1OC[C@@H](CF)n1cnnc1-2)c1cc(-n2cnc(C3CC3)c2)ccn1 [Example 29, (S)-4-(4-cyclopropyl-1H-imidazol-1-yl)-N-(5-(fluoromethyl)-5,6-dihydrobenzo[f][1,2,4]triazolo[4,3-d][1,4]oxazepin-8-yl)picolinamide]",4.1
2,"C[C@H]1COc2c(NC(=O)c3cc(-n4cnc(C5CC5)c4)c(N4CCOCC4)cn3)cccc2-c2nncn21 [Example 38, (S)-4-(4-cyclopropyl-1H-imidazol-1-yl)-N-(5-methyl-5,6-dihydrobenzo[f][1,2,4]triazolo[4,3-d][1,4]oxazepin-8-yl)-5-morpholinopicolinamide]",0.6
3,"C[C@@H]1COc2c(NC(=O)c3cc(-n4cnc(C5CC5)c4)ccn3)cccc2-c2nnnn21 [Example 4, (R)-4-(4-cyclopropyl-1H-imidazol-1-yl)-N-(5-methyl-5,6-dihydrobenzo[f]tetrazolo[1,5-d][1,4]oxazepin-8-yl)picolinamide]",5.7
4,"Cc1cc(F)c(C(=O)Nc2cccc3c2OC[C@H](C)n2cnnc2-3)cc1-n1cnc(C2CC2)c1 [Example 2, (S)-5-(4-cyclopropyl-1H-imidazol-1-yl)-2-fluoro-4-methyl-N-(5-methyl-5,6-dihydrobenzo[f][1,2,4]triazolo[4,3-d][1,4]oxazepin-8-yl)benzamide]",9.1
5,"C[C@@H]1Cn2cnnc2-c2cccc(NC(=O)c3cc(-n4cnc(C5CC5)c4)ccn3)c2O1 [Example 52, (R)-4-(4-cyclopropyl-1H-imidazol-1-yl)-N-(6-methyl-5,6-dihydrobenzo[f][1,2,4]triazolo[4,3-d][1,4]oxazepin-8-yl)picolinamide]",5.9
6,"O=C(Nc1cccc2c1OCCn1nnnc1-2)c1cc(-n2cnc(C3CC3)c2)c(N2CCC2)cn1 [Example 58, 5-(azetidin-1-yl)-4-(4-cyclopropyl-1H-imidazol-1-yl)-N-(5,6-dihydrobenzo[f]tetrazolo[1,5-d][1,4]oxazepin-8-yl)picolinamide]",3.2
7,"O=C(Nc1cccc2c1OC[C@H](CO)n1nnnc1-2)c1cc(-n2cnc(C3CC3)c2)ccn1 [Example 24, (S)-4-(4-cyclopropyl-1H-imidazol-1-yl)-N-(5-(hydroxymethyl)-5,6-dihydrobenzo[f]tetrazolo[1,5-d][1,4]oxazepin-8-yl)picolinamide]",6.2
8,"O=C(Nc1cccc2c1OCCn1nnnc1-2)c1cc(-n2cnc(C3CC3)c2)c(N2CC[C@@H](O)C2)cn1 [Example 57, (R)-4-(4-cyclopropyl-1H-imidazol-1-yl)-N-(5,6-dihydrobenzo[f]tetrazolo[1,5-d][1,4]oxazepin-8-yl)-5-(3-hydroxypyrrolidin-1-yl)picolinamide]",4.7
9,"Cc1cc(F)c(C(=O)Nc2cccc3c2OC[C@H](CO)n2cnnc2-3)cc1-n1cnc(C2CC2)c1 [Example 16, (S)-5-(4-cyclopropyl-1H-imidazol-1-yl)-2-fluoro-N-(5-(hydroxymethyl)-5,6-dihydrobenzo[f][1,2,4]triazolo[4,3-d][1,4]oxazepin-8-yl)-4-methylbenzamide]",5.2
10,"O=C(Nc1cccc2c1OCCn1cnnc1-2)c1cc(-n2cnc(C3CC3)c2)c(N2CCOCC2)cn1 [Example 44, 4-(4-cyclopropyl-1H-imidazol-1-yl)-N-(5,6-dihydrobenzo[f][1,2,4]triazolo[4,3-d][1,4]oxazepin-8-yl)-5-morpholinopicolinamide]",15.6
11,"Cc1cc(F)c(C(=O)Nc2cccc3c2O[C@@H](C)Cn2nnnc2-3)cc1-n1cnc(C2CC2)c1 [Example 42, (S)-5-(4-cyclopropyl-1H-imidazol-1-yl)-2-fluoro-4-methyl-N-(6-methyl-5,6-dihydrobenzo[f]tetrazolo[1,5-d][1,4]oxazepin-8-yl)benzamide]",16.8
12,"Cc1cc(F)c(C(=O)Nc2cccc3c2OC[C@H](C)n2nnnc2-3)cc1-n1cnc(C2CC2)c1 [Example 3, (S)-5-(4-cyclopropyl-1H-imidazol-1-yl)-2-fluoro-4-methyl-N-(5-methyl-5,6-dihydrobenzo[f]tetrazolo[1,5-d][1,4]oxazepin-8-yl)benzamide]",5.7
13,"O=C(Nc1cccc2c1OCCn1cnnc1-2)c1cc(-n2cnc(C3CC3)c2)ccn1 [Example 56, 4-(4-cyclopropyl-1H-imidazol-1-yl)-N-(5,6-dihydrobenzo[f][1,2,4]triazolo[4,3-d][1,4]oxazepin-8-yl)picolinamide]",35.2
14,"Cc1cc(F)c(C(=O)Nc2cccc3c2OC[C@@H](C2CC2)n2cnnc2-3)cc1-n1cnc(C2CC2)c1 [Example 8, (R)-5-(4-cyclopropyl-1H-imidazol-1-yl)-N-(5-cyclopropyl-5,6-dihydrobenzo[f][1,2,4]triazolo[4,3-d][1,4]oxazepin-8-yl)-2-fluoro-4-methylbenzamide]",11.7
15,"O=C(Nc1cccc2c1OCC(CO)n1cnnc1-2)c1cc(-n2cnc(C3CC3)c2)ccn1 (stereo not shown) [Example 15, 4-(4-cyclopropyl-1H-imidazol-1-yl)-N-(5-(hydroxymethyl)-5,6-dihydrobenzo[f][1,2,4]triazolo[4,3-d][1,4]oxazepin-8-yl)picolinamide]",5.8
16,"C[C@H]1COc2c(NC(=O)c3cc(-n4cnc(C5CC5)c4)c(N4CCOCC4)cn3)cccc2-c2nnnn21 [Example 22, (S)-4-(4-cyclopropyl-1H-imidazol-1-yl)-N-(5-methyl-5,6-dihydrobenzo[f]tetrazolo[1,5-d][1,4]oxazepin-8-yl)-5-morpholinopicolinamide]",0.6
